One data set has as its system MCF-7, clone WS8, cells. Kind of data set: MCF-7 cell proliferation assay of estrogenic agonist activity. The format is cell-based, human. The following applies: logarithmic (base 10) Relative Proliferative Effect in MCF-7 assay; expected or measured values. An excerpt:
As used herein, the terms “estrogenic agonist activity” or “estrogenic activity” refer to the ability of a compound to mimic hormone-like activity through interaction with an endogenous estrogen receptor, typically an endogenous human estrogen receptor. […] The MCF-7 assay uses MCF-7, clone WS8, cells to measure whether and to what extent a substance induces cell proliferation via estrogen receptor (ER)-mediated pathways. The method is described in “Test Method Nomination: MCF-7 Cell Proliferation Assay of Estrogenic agonist activity” submitted for validation by CertiChem, Inc. to the National Toxicology Program Interagency Center for the Evaluation of Alternative Toxicological Methods (NICEA™) on Jan. 19, 2006 (available online at http://iccvam.niehs.nih.gov/methods/endocrine/endodocs/SubmDoc.pdf). As a brief summary of the assay, MCF-7, clone WS8, cells are maintained at 37° C. in RMPI (or Roswell Park Memorial Institute medium) containing Phenol Red (e.g., GIBCO Catalog Number 11875119) and supplemented with the indicated additives for routine culture. An aliquot of cells maintained at 37° C. are grown for 2 days in phenol-free media containing 5% charcoal stripped fetal bovine serum in a 25 cm^2 tissue culture flask. Using a robotic dispenser such as an epMotion 5070 unit, MCF-7 cells are then seeded at 400 cells per well in 0.2 ml of hormone-free culture medium in Corning 96-well plates. The cells are adapted for 3 days in the hormone-free culture medium prior to adding the chemical to be assayed for estrogenic agonist activity. The media containing the test chemical is replaced daily for 6 days. At the end of the 7-day exposure to the test chemical, the media is removed, the wells are washed once with 0.2 ml of HBSS (Hanks' Balanced Salt Solution), and then assayed to quantify amounts of DNA per well using a micro-plate modification of the Burton diphenylamine (DPA) assay, which is used to calculate the level of cell proliferation.
RPE is the ratio between the EC50 of the test chemical and the EC50 of the control substance 17-beta estradiol times 100, where EC50 is “effective concentration 50%” or half-maximum stimulation concentration for cell proliferation measured as total DNA in the MCF-7 assay.
Tables 1 and 2 provided below include some compounds and their expected or measured logarithmic RPE values in the MCF-7 assay.

The target of another data set is T1, estrogen receptor (Homo sapiens, UniProt P03372).
T1 sequence (P03372 1-595): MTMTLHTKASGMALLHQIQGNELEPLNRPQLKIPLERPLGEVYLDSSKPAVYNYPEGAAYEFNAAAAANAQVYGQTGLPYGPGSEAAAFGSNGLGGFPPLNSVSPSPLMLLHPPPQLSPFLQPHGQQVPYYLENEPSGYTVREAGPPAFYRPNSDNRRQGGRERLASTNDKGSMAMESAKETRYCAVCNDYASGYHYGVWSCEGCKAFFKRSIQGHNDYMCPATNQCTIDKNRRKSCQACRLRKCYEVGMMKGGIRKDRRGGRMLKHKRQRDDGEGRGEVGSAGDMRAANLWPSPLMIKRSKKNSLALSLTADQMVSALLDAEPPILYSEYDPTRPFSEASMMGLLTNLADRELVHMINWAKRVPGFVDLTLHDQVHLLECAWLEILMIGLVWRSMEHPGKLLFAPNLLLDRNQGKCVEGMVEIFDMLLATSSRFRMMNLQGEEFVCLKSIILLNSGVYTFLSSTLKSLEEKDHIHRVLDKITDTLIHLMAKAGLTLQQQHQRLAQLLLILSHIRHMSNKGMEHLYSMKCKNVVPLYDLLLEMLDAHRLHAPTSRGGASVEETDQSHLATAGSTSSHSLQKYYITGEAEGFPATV
Nature of the data set: suitable in vitro assay of estrogenic agonist activity correlated to the MCF-7 assay. To be noted: suitable in vitro assay correlated to MCF-7 assay. From the text: While not intending to be bound by any theory, it is believed that the positioning of one or more R^1 groups at an ortho position relative to the oxygen atom depicted in Formulas (I) and (IA) may be particularly beneficial in reducing or eliminating estrogenic agonist activity.

The nature of data set [1]: Gel-time comparison of two-part epoxy compositions with curing agents. The format is physicochemical. The following applies: for Difference in gel time: TMBPFDGE minus BADGE; for Gel time: 1:1 stoichiometric mix, 100 g; for Gel-Time % increase: from BADGE to TMBPFDGE
The protocol:
Two-part epoxy compositions of bisphenol A diglycidyl ether (BADGE) (e.g., molecular weight of approximately 340 g/mol) and tetramethyl bisphenol F diglycidyl ether (TMBPFDGE) were prepared and mixed with various amine-based curing agents to compare the respective gel times of the compositions. The BADGE and TMBPFDGE monomer epoxides (e.g., molecular weight of approximately 340.4 g/mol and 368.6 g/mol respectively) were reduced to approximately 90% weight solids with xylene solvent. Gel times were measured using 100 g mass samples with a Paul N. Gardner Co, Inc. gel time recorder model S-5154. The gel-time values reported are in minutes, along with the difference between BADGE and TMBPFDGE compositions using the same curing agent, and the percent increase in gel time from BADGE to TMBPFDGE.

Setting [2] is: curing agent ANACAMIDE 375A (polyamide).
Setting [3] is: curing agent ANACAMINE 503 (amidoamine).
The mark [4] stands for this setting: curing agent ANACAMINE 2393 (cycloaliphatic amine).
The mark [5] stands for this setting: curing agent CARDOLITE 3040 (phenalkamide).
[6] abbreviates: curing agent CARDOLITE NC541 (phenalkamine).
The mark [7] stands for this setting: curing agent GABEPRO GPM-830CB (mercaptan).
[8] abbreviates: curing agent TETA, epoxy 90% solids in xylene.

With `C[C@]12CC[C@@H]3c4ccc(O)cc4CC[C@H]3[C@@H]1CC[C@@H]2O` [17β-estradiol], the “Log RPE” value in the data set with MCF-7, clone WS8, cells is given as 2.00.

For the compound `CCCC(c1cc(C(C)(C)C)c(O)cc1C)c1cc(C(C)(C)C)c(O)cc1C` [4,4′-butylidenebis(2-t-butyl-5-methylphenol)], the estrogenic agonist activity result at estrogen receptor is listed as “do not exhibit appreciable estrogenic agonist activity”.

Take `Cc1cc(Cc2cc(C)c(OCC3CO3)c(C)c2)cc(C)c1OCC1CO1` (centres unmarked) [TMBPFDGE, tetramethyl bisphenol F diglycidyl ether]: the “Difference in gel time” value is listed as 454 min in data set [1] (setting [2]); 469 min in data set [1] (setting [3]); 343 min in data set [1] (setting [4]); 370 min in data set [1] (setting [5]); 206 min in data set [1] (setting [6]); 82 min in data set [1] (setting [7]). In addition, the “Difference in gel time” value in data set [1] (curing agent PACM) is given as 510 min; in data set [1] (curing agent TETA) it was 333 min. Besides, the Gel time in data set [1] (setting [2]) was 766 min; in data set [1] (setting [3]), 680 min; in data set [1] (setting [4]) it was 398 min; in data set [1] (setting [5]), 568 min; in data set [1] (setting [6]), 292 min; in data set [1] (setting [7]), 98 min. Further, the Gel time in data set [1] (curing agent PACM) is 785 min; in data set [1] (setting [8]), 407 min. Further, the Gel-Time % increase in data set [1] (setting [2]) came out at 146%; in data set [1] (setting [3]) it was 222%; in data set [1] (setting [4]) it was 624%; in data set [1] (setting [5]), 187%; in data set [1] (setting [6]), 240%; in data set [1] (setting [7]), 513%. Moreover, the Gel-Time % increase is listed as 185% in data set [1] (curing agent PACM) and 450% in data set [1] (curing agent TETA).

As to `Cc1cc(Cc2cc(C)cc(C(C)(C)C)c2O)c(O)c(C(C)(C)C)c1` [2,2′-methylenebis(4-methyl-6-t-butylphenol)], at estrogen receptor, the estrogenic agonist activity result was “do not exhibit appreciable estrogenic agonist activity”.

`CC(C)(C)c1cc(Cc2cc(C(C)(C)C)c(O)c(C(C)(C)C)c2)cc(C(C)(C)C)c1O` [4,4′-methylenebis(2,6-di-t-butylphenol)]: the estrogenic agonist activity entry on estrogen receptor is “do not exhibit appreciable estrogenic agonist activity”.

On to `O=S(=O)(c1ccc(O)cc1)c1ccc(O)cc1` [Bisphenol S], for which the “Log RPE” value in the data set with MCF-7, clone WS8, cells is −2.

Turning to `Oc1ccc(Cc2ccc(O)cc2)cc1` [Bisphenol F], the “Log RPE” value with MCF-7, clone WS8, cells is reported as −2.

With `Cc1cc(Cc2cc(C)cc(C3(C)CCCCC3)c2O)c(O)c(C2(C)CCCCC2)c1` [2,2′-Methylenebis(6-(1-methylcyclohexyl)-4-methylphenol], in the data set on MCF-7, clone WS8, cells, the “Log RPE” value is given as “less than −4”.

Regarding `Cc1cc(Cc2cc(C)c(O)c(C)c2)cc(C)c1O` [4,4′-methylenebis(2,6-dimethylphenol)], the estrogenic agonist activity entry on estrogen receptor was “do not exhibit appreciable estrogenic agonist activity”.

As to `CC(C)(c1ccc(OCC2CO2)cc1)c1ccc(OCC2CO2)cc1` (centres unmarked) [BADGE, bisphenol A diglycidyl ether, reference compound], the Gel time in data set [1] (setting [2]) stood at 312 min; in data set [1] (setting [3]), 211 min; in data set [1] (setting [4]), 55 min; in data set [1] (setting [5]), 198 min; in data set [1] (setting [6]), 86 min; in data set [1] (setting [7]), 16 min. For the same compound, the figures for the Gel time in data set [1] (curing agent PACM) and in data set [1] (setting [8]) were 275 min and 74 min, respectively.

In the case of `CC(C)(C)c1cc(O)c(C(C)(C)C)cc1O` [2,5-di-t-butylhydroquinone], the estrogenic agonist activity entry at estrogen receptor is “do not exhibit appreciable estrogenic agonist activity”.

(Values after US12331224B2, “Two-part epoxy compositions for adherent coatings of storage articles” (SWIMC LLC, priority 2019, dated 2025).)
